The assay relates to GBM6 cells. The experiment in a line: Nanoparticle internalization by flow cytometry, GBM6 cells. Format: cell-based, Human. The following applies: for cell internalization of free dye: average bulk FL of FAM with flow cytometry, over time.

For the compound `COc1cccc2c1C(=O)c1c(O)c3c(c(O)c1C2=O)C[C@@](O)(C(=O)CO)C[C@@H]3O[C@H]1C[C@H](N)[C@H](O)[C@H](C)O1` [free DOX, doxorubicin], the “time of maximum DOX fluorescence in cells” value (average bulk FL of DOX by FCT) was 24 h.

As to 5,6-carboxyfluorescein [FAM], the “cell internalization of free dye” value is reported as “cannot enter cells”. In addition, the “cell internalization of free dye” value (listed as free FAM) is recorded as “no cell”.

For the origin of these results see paper doi:10.1101/2020.05.04.072892v1 (bioRxiv, 2020).
